# Assay results: article PMC8945229, “Development and Biological Characterization of a Novel Selective TrkA Agonist with Neuroprotective Properties against Amyloid Toxicity” (Biomedicines, 2022)
# What was measured:
# [1] = tested on: Primary hippocampal neurons; test: TUNEL assay in primary hippocampal neurons treated with oligomeric Aβ; type: cell-based, mouse; conditions: 5 μM oligomeric Aβ, 500 nM every 24 h, 48 h
# Procedure: Primary hippocampal neurons were isolated from E17.5 mouse embryos (C57BL/6J, The Jackson Laboratory, Bar Harbor, ME, USA) as previously described and cultured with Neurobasal medium containing 2% B27, 1X GlutaMax, 10 mM HEPES and 1% PenStrep. Cells were maintained in a humified incubator at 37 °C and 5% CO2. For TUNEL assay, cells were left in culture for 16–18 days and then treated with 5 μM oligomeric Aβ along with ENT-A013 (500 nM, every 24 h) for 48 h. Cells were then fixed with 4% PFA and labelled with TUNEL (F. Hoffmann–La Roche Ltd., Basel, Switzerland, cat# 11684795910) following the manufacturer’s protocol. Subsequently, cells were immunostained against Tuj1 and imaged with confocal microscopy. For synaptic plasticity assay, cells were left in culture for 16–18 days and then treated with 5 μM oligomeric Aβ along with ENT-A013 (500 nM) for 4 h. Cells were then fixed with 4% PFA and immunostained against Tuj1 and Synaptophysin (1:1000, PA1-1043, Invitrogen, Waltham, MA, USA), anti-mouse Alexa fluor 488 (1:1000, A-11029, Invitrogen, Waltham, MA, USA) and anti-rabbit Alexa fluor 546 (1:1000, A10040, Invitrogen, Waltham, MA, USA). Images were acquired using confocal microscopy and the total area of synaptophysin positive puncta was measured and normalized to Tuj1 total area. […]
# [2] = molecular target: T1, TrkA (Rattus norvegicus, UniProt P35739); test: TrkA phosphorylation in PC12 cells (IP with TrkA antibody, Western blot against phosphorylated Tyrosine); type: cell-based
# T1 construct: we used PC12 cells, a cell line that express TrkA and p75^NTR; host or cells: PC12
# Procedure: For immunoprecipitation experiments PC12 or HEK293T, cells were used when at 70–80% confluent. […] Cells were then lysed in Pierce™ IP Lysis Buffer (87788, Thermo Fischer Scientific, Waltham, MA, USA) containing proteases (539138, Calbiochem, Darmstadt, Germany) and phosphatase inhibitors (524629, Calbiochem, Darmstadt, Germany). Lysates were then immunoprecipitated overnight at 4 °C with TrkA antibody (1:100, 06-574, Sigma-Aldrich, St. Louis, MO, USA) (Table S1) or p75^NTR antibody (1:100, ab6172, Abcam plc., Cambridge, UK) followed by 4 h incubation with protein G-plus agarose beads (sc-2002, Santa Cruz Biotechnology, Inc., Dallas, TX, USA). Beads were then collected, washed 3X with lysis buffer, resuspended in SDS loading buffer and subjected to Western blot against phosphorylated Tyrosine (1:1000, BAM1676, R&D Systems, Inc., Minneapolis, MN, USA) or Traf6 antibody (1:2000, ab33915, Abcam, plc., Cambridge, UK). Whole cell lysates were subjected to Western blot against TrkA (1:1000, 06-574, Sigma-Aldrich, St. Louis, MO, USA), phosphorylated TrkB (1:1000, ABN1381, Sigma-Aldrich, St. Louis, MO, USA), phosphorylated TrkC (1:1000, STJ90960, St John’s Laboratory, Ltd., London, UK), TrkB (1:1000, 07-225-I, Sigma-Aldrich, St. Louis, MO, USA), TrkC (1:1000, C44H5, Cell Signaling Technology, Danvers, MA, USA), p75 (1:1000, 839701, Biolegend, Inc., San Diego, CA, USA), Traf6 (1:2000, ab33915, Abcam, plc., Cambridge, UK) phosphorylated Akt (1:1000, 9721S, Cell Signaling Technology, Danvers, MA, USA), phosphorylated Erk1/2 (1:1000, 9101S, Cell Signaling Technology, Danvers, MA, USA), total Akt (1:1000, 4691S Cell Signaling Technology, Danvers, MA, USA) and total Erk1/2 (1:1000, 4695S, Cell Signaling Technology, Danvers, MA, USA).
# [3] = molecular target: T2, CYP1A2 (Homo sapiens, UniProt P05177); test: Isozyme-specific CYP450 inhibition (Baculosomes); type: in vitro ADME; conditions: 1 μM, 60 min
# T2 construct: purchased Thermo Fisher Scientific; host or cells: Baculosomes (microsomes of baculovirus-infected insect cells: own knowledge)
# Procedure: (§1) Baculosomes® expressing CYP1A2, CYP2A6, CYP2B6, CYP2C9, CYP2C19, CYP2D6 and CYP3A4 human CYP450 isoenzymes were purchased from Thermo Fisher Scientific (Waltham, MA, USA). All reagents were handled and prepared according to the manufacturer’s protocol. ENT-A013 was tested at 1 μM. Enzymatic activity in the presence of ΕΝΤ-A013 was assessed based on the kinetic model for CYP1A2, CYP2A6, CYP2B6, CYP2C9, CYP2C19, CYP2D6 and CYP3A4 isoforms. Reactions took place in triplicates at 20 °C. Glucose-6-phosphate at 333 mM and glucose-6-phosphate-dehydrogenase at 30 U/mL in 100 mM potassium phosphate, pH 8.0 (regeneration system) converted NADP^+ (10 mM in 100 mM potassium phosphate, pH 8.0) into NADPH to initiate the CYP450 reaction. Upon the addition of the fluorescent substrate, immediately (<2 min), the fluorescence signal was monitored over time at suitable excitation and emission wavelengths by Lionheart FX (BioTek, Winooski, VT, USA) (Table S2). CYP450 inhibition (%) was determined based on the reaction rates (fluorescence intensity changes per unit time). A total of n = 60 measurements per minute were acquired for a total time of t = 60 min. % Inhibition= (1 − X/A) × 100%(1) where: X is the rate observed in the presence of test-compound; A is the rate observed in the presence of negative (solvent, DMSO) control.
# [4] = molecular target: T3, CYP2D6 (Homo sapiens, UniProt P10635); test: Isozyme-specific CYP450 inhibition (Baculosomes); type: in vitro ADME; conditions: 1 μM, 60 min
# T3 construct: purchased Thermo Fisher Scientific; host or cells: Baculosomes (microsomes of baculovirus-infected insect cells: own knowledge)
# Procedure: as §1
# [5] = molecular target: T4, CYP2C9 (Homo sapiens, UniProt P11712); test: Isozyme-specific CYP450 inhibition (Baculosomes); type: in vitro ADME; conditions: 1 μM, 60 min
# T4 construct: purchased Thermo Fisher Scientific; host or cells: Baculosomes (microsomes of baculovirus-infected insect cells: own knowledge)
# Procedure: as §1
# [6] = molecular target: T5, CYP2B6 (Homo sapiens, UniProt P20813); test: Isozyme-specific CYP450 inhibition (Baculosomes); type: in vitro ADME; conditions: 1 μM, 60 min
# T5 construct: purchased Thermo Fisher Scientific; host or cells: Baculosomes (microsomes of baculovirus-infected insect cells: own knowledge)
# Procedure: as §1
# T1 sequence (P35739 33-799): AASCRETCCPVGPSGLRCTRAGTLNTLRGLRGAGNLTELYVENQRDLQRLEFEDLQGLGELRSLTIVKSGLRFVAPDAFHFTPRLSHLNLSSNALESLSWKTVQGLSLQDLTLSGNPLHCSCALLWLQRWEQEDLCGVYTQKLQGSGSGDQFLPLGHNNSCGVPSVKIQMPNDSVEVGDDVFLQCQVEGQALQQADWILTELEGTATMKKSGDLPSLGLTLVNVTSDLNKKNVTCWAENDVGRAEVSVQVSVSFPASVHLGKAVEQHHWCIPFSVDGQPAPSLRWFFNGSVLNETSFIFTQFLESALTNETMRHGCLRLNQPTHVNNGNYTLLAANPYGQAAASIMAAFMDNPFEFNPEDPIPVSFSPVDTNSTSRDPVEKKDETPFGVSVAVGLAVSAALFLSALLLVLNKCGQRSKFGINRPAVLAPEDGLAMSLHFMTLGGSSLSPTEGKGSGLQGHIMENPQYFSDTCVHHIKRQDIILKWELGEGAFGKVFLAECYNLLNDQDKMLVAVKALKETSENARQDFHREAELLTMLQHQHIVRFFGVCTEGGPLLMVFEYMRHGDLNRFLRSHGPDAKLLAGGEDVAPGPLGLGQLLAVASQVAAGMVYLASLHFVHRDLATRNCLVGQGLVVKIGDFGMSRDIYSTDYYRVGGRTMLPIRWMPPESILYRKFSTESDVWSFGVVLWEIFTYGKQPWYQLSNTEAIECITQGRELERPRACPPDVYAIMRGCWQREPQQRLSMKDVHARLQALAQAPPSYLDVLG
# T3 sequence (P10635 whole entry): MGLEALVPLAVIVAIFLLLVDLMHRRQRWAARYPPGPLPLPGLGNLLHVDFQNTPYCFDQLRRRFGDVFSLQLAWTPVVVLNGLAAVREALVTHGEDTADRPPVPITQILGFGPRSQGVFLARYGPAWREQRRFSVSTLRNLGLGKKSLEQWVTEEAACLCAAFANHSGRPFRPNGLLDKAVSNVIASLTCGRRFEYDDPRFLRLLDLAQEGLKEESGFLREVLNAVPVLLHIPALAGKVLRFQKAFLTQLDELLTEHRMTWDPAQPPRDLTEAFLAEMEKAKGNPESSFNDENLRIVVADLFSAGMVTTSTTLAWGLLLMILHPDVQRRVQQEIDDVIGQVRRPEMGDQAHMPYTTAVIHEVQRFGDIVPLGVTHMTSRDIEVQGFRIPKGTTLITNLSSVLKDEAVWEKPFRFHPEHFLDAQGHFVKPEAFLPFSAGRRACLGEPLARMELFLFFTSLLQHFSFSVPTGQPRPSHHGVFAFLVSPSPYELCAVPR
# T4 sequence (P11712 whole entry): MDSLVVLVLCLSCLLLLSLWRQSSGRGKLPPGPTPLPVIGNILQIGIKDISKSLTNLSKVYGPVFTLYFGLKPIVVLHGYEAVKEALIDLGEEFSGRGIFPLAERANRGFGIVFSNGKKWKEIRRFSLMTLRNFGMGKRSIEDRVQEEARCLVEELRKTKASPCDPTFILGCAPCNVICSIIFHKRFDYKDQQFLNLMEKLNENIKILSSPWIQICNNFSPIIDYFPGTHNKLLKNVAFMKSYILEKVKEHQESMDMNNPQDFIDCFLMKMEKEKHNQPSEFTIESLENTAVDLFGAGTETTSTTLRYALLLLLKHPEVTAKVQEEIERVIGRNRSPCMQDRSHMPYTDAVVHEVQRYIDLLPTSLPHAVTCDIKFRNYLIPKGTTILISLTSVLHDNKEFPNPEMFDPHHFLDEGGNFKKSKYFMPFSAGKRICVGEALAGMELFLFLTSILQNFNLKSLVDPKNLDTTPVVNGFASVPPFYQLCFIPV
# T5 sequence (P20813 whole entry): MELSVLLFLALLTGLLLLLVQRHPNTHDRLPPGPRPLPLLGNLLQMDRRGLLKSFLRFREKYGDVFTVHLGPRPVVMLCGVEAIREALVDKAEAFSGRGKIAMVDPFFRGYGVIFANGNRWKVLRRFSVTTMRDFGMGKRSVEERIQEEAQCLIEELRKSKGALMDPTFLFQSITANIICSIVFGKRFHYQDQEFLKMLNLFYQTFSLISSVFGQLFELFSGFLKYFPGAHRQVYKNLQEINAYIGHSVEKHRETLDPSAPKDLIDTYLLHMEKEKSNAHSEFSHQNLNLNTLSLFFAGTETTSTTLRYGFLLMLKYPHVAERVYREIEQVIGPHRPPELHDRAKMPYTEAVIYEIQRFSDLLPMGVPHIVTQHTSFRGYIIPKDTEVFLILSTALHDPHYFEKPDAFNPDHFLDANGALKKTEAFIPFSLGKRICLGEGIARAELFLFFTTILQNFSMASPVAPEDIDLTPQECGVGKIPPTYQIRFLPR
# T2 sequence (P05177 2-516 limits assumed): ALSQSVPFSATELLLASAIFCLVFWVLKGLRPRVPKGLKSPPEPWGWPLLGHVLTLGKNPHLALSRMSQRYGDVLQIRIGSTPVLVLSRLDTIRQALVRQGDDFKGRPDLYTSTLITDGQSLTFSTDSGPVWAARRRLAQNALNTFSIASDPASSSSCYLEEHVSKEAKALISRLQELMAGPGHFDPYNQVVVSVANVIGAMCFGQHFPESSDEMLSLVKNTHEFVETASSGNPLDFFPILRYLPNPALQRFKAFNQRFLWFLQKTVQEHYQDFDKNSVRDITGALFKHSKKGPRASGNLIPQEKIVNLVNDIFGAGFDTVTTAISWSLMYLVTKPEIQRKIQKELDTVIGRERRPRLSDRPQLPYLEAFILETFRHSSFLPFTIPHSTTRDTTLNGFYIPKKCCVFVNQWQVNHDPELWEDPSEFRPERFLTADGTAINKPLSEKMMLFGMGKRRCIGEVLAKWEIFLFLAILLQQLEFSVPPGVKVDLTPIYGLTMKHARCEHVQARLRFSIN
smiles,measurement,setting,value
"CC12CCC(O)CC1=CCC1C2CCC2(C)C1CCC21CC1C=CBr [ENT-A013, (2′R,3S,17S)-2′-(2-Bromovinyl)-5-Androstene-17,1′-Cyclopropan-3-ol]",apoptosis (TUNEL),[1],29.8% ± 2.5%
same,time TrkA phosphorylation is sustained after treatment,"[2]; PC12 cells, 10, 30 or 60′ treatment",up to 1 hr
same,TrkA phosphorylation,"[2]; PC12 cells, compound 500 nM or NGF 100 ng/mL, 30′",2.05 ± 0.21 % of control FC
same,CYP450 inhibition (in words),[3],weak inhibitor
same,CYP450 inhibition (in words),[4],moderate inhibition
same,CYP450 inhibition (in words),[5],weak inhibitor
same,CYP450 inhibition (in words),[6],weak inhibitor
